# Reference: article PMC11005723, “Development of Complementary Photo‐arginine/lysine to Promote Discovery of Arg/Lys hPTMs Interactomes” (Advanced Science, 2024)
# Test system: HEK293T nuclear lysates
# Test: SILAC‐based pull‐down proteomics H4K5me2/H4K5 (probes 7/5)
# Type: binding, human
# Conditions: for F6 log2 (H4K5me2/H4K5): run F6; for E6 log2 (H4K5me2/H4K5): run E6
substance,measurement,setting,value
probe 7: H4K5me2 peptide probe with photo‐arginine R(dz) and K(biotin) (SGRGKGGKGLGKGGK; photo-arginine R(dz) at 3; dimethyl-lysine at 5; K(biotin) at 15),F6 log2 (H4K5me2/H4K5),protein Q5SY16 NOL9,0.298
same,E6 log2 (H4K5me2/H4K5),protein Q5UIP0 RIF1,0.1193
same,F6 log2 (H4K5me2/H4K5),protein Q5UIP0 RIF1,-0.04241
same,E6 log2 (H4K5me2/H4K5),protein Q5VZL5 ZMYM4,0.09551
same,F6 log2 (H4K5me2/H4K5),protein Q5VZL5 ZMYM4,-0.04431
same,E6 log2 (H4K5me2/H4K5),protein Q8NFW8 CMAS,0.141
same,F6 log2 (H4K5me2/H4K5),protein Q8NFW8 CMAS,0.05465
same,E6 log2 (H4K5me2/H4K5),protein Q8WYA6 CTNNBL1,0.1516
same,F6 log2 (H4K5me2/H4K5),protein Q8WYA6 CTNNBL1,0.456
same,E6 log2 (H4K5me2/H4K5),protein Q9BRX2 PELO,0.1716
same,F6 log2 (H4K5me2/H4K5),protein Q9BRX2 PELO,0.4162
same,E6 log2 (H4K5me2/H4K5),protein Q9BUF5 TUBB6,0.1331
same,F6 log2 (H4K5me2/H4K5),protein Q9BUF5 TUBB6,-0.5148
same,E6 log2 (H4K5me2/H4K5),protein Q9BVA1 TUBB2B,0.166
same,F6 log2 (H4K5me2/H4K5),protein Q9BVA1 TUBB2B,-0.2469
same,E6 log2 (H4K5me2/H4K5),protein Q9BVJ6 UTP14A,0.05903
same,F6 log2 (H4K5me2/H4K5),protein Q9BVJ6 UTP14A,-0.461
same,E6 log2 (H4K5me2/H4K5),protein Q9BW71 HIRIP3,0.0877
same,F6 log2 (H4K5me2/H4K5),protein Q9BW71 HIRIP3,-0.01781
same,E6 log2 (H4K5me2/H4K5),protein Q9BXP5 SRRT,0.141
same,F6 log2 (H4K5me2/H4K5),protein Q9BXP5 SRRT,0.1118
same,E6 log2 (H4K5me2/H4K5),protein Q9H4L7 SMARCAD1,0.1459
same,F6 log2 (H4K5me2/H4K5),protein Q9H4L7 SMARCAD1,0.07323
same,E6 log2 (H4K5me2/H4K5),protein Q9H5H4 ZNF768,0.1121
same,F6 log2 (H4K5me2/H4K5),protein Q9H5H4 ZNF768,0.2152
same,E6 log2 (H4K5me2/H4K5),protein Q9NPJ6 MED4,0.1455
same,F6 log2 (H4K5me2/H4K5),protein Q9NPJ6 MED4,0.1113
same,E6 log2 (H4K5me2/H4K5),protein Q9NRL2 BAZ1A,0.163
same,F6 log2 (H4K5me2/H4K5),protein Q9NRL2 BAZ1A,0.1532
same,E6 log2 (H4K5me2/H4K5),protein Q9NX58 LYAR,0.1556
same,F6 log2 (H4K5me2/H4K5),protein Q9NX58 LYAR,0.3557
same,E6 log2 (H4K5me2/H4K5),protein Q9P013 CWC15,0.1308
same,F6 log2 (H4K5me2/H4K5),protein Q9P013 CWC15,0.1373
same,E6 log2 (H4K5me2/H4K5),protein Q9P258 RCC2,0.1054
same,F6 log2 (H4K5me2/H4K5),protein Q9P258 RCC2,0.04172
same,E6 log2 (H4K5me2/H4K5),protein Q9UFW8 CGGBP1,0.1502
same,F6 log2 (H4K5me2/H4K5),protein Q9UFW8 CGGBP1,0.1918
same,E6 log2 (H4K5me2/H4K5),protein Q9ULV4 CORO1C,0.1506
same,F6 log2 (H4K5me2/H4K5),protein Q9ULV4 CORO1C,0.2392
same,E6 log2 (H4K5me2/H4K5),protein Q9Y5Q8 GTF3C5,0.07771
same,F6 log2 (H4K5me2/H4K5),protein Q9Y5Q8 GTF3C5,-0.06295
same,E6 log2 (H4K5me2/H4K5),protein Q9Y5Q9 GTF3C3,0.06434
same,F6 log2 (H4K5me2/H4K5),protein Q9Y5Q9 GTF3C3,0.04559
same,E6 log2 (H4K5me2/H4K5),protein Q9Y6G9 DYNC1LI1,0.06739
same,F6 log2 (H4K5me2/H4K5),protein Q9Y6G9 DYNC1LI1,0.07842
same,E6 log2 (H4K5me2/H4K5),protein Q9Y383 LUC7L2,0.1112
same,F6 log2 (H4K5me2/H4K5),protein Q9Y383 LUC7L2,0.1004
same,E6 log2 (H4K5me2/H4K5),protein Q69YN4 KIAA1429,0.07633
same,F6 log2 (H4K5me2/H4K5),protein Q69YN4 KIAA1429,1.095
same,E6 log2 (H4K5me2/H4K5),protein Q86UV5 USP48,0.08539
same,F6 log2 (H4K5me2/H4K5),protein Q86UV5 USP48,0.1516
same,E6 log2 (H4K5me2/H4K5),protein Q86VP6 CAND1,0.1189
same,F6 log2 (H4K5me2/H4K5),protein Q86VP6 CAND1,0.1916
same,E6 log2 (H4K5me2/H4K5),protein Q96I24 FUBP3,0.09267
same,F6 log2 (H4K5me2/H4K5),protein Q96I24 FUBP3,0.003553
same,E6 log2 (H4K5me2/H4K5),protein Q96RL1 UIMC1,0.1095
same,F6 log2 (H4K5me2/H4K5),protein Q96RL1 UIMC1,0.3246
same,E6 log2 (H4K5me2/H4K5),protein Q96SI9 STRBP,0.1111
same,F6 log2 (H4K5me2/H4K5),protein Q96SI9 STRBP,-0.1086
same,E6 log2 (H4K5me2/H4K5),protein Q00839 HNRNPU,0.1593
same,F6 log2 (H4K5me2/H4K5),protein Q00839 HNRNPU,0.1015
same,E6 log2 (H4K5me2/H4K5),protein Q06265 EXOSC9,0.08559
same,F6 log2 (H4K5me2/H4K5),protein Q06265 EXOSC9,0.2199
same,E6 log2 (H4K5me2/H4K5),protein Q08211 DHX9,0.1119
same,F6 log2 (H4K5me2/H4K5),protein Q08211 DHX9,0.3522
same,E6 log2 (H4K5me2/H4K5),protein Q12888 TP53BP1,0.1736
same,F6 log2 (H4K5me2/H4K5),protein Q12888 TP53BP1,0.06404
same,E6 log2 (H4K5me2/H4K5),protein Q13409 DYNC1I2,0.06369
same,F6 log2 (H4K5me2/H4K5),protein Q13409 DYNC1I2,-0.3262
same,E6 log2 (H4K5me2/H4K5),protein Q13838 DDX39B,0.1273
same,F6 log2 (H4K5me2/H4K5),protein Q13838 DDX39B,0.2575
same,E6 log2 (H4K5me2/H4K5),protein Q14247 CTTN,0.1014
same,F6 log2 (H4K5me2/H4K5),protein Q14247 CTTN,-0.09702
same,E6 log2 (H4K5me2/H4K5),protein Q14498 RBM39,0.177
same,F6 log2 (H4K5me2/H4K5),protein Q14498 RBM39,0.352
same,E6 log2 (H4K5me2/H4K5),protein Q14683 SMC1A,0.1403
same,F6 log2 (H4K5me2/H4K5),protein Q14683 SMC1A,0.1731
same,E6 log2 (H4K5me2/H4K5),protein Q15007 WTAP,0.1397
same,F6 log2 (H4K5me2/H4K5),protein Q15007 WTAP,0.4766
same,E6 log2 (H4K5me2/H4K5),protein Q15029 EFTUD2,0.07001
same,F6 log2 (H4K5me2/H4K5),protein Q15029 EFTUD2,0.00906
same,E6 log2 (H4K5me2/H4K5),protein Q15181 PPA1,0.1337
same,F6 log2 (H4K5me2/H4K5),protein Q15181 PPA1,0.2844
same,E6 log2 (H4K5me2/H4K5),protein Q15366 PCBP2,0.119
same,F6 log2 (H4K5me2/H4K5),protein Q15366 PCBP2,0.02194
same,E6 log2 (H4K5me2/H4K5),protein Q15459 SF3A1,0.09759
same,F6 log2 (H4K5me2/H4K5),protein Q15459 SF3A1,-0.03717
same,E6 log2 (H4K5me2/H4K5),protein Q15637 SF1,0.06831
same,F6 log2 (H4K5me2/H4K5),protein Q15637 SF1,-0.04609
same,E6 log2 (H4K5me2/H4K5),protein Q15654 TRIP6,0.1136
same,F6 log2 (H4K5me2/H4K5),protein Q15654 TRIP6,0.7606
same,E6 log2 (H4K5me2/H4K5),protein Q16543 CDC37,0.09946
same,F6 log2 (H4K5me2/H4K5),protein Q16543 CDC37,-0.01218
same,E6 log2 (H4K5me2/H4K5),protein Q92769 HDAC2,0.1172
same,F6 log2 (H4K5me2/H4K5),protein Q92769 HDAC2,0.07863
same,E6 log2 (H4K5me2/H4K5),protein Q92785 DPF2,0.1557
same,F6 log2 (H4K5me2/H4K5),protein Q92785 DPF2,0.235
same,E6 log2 (H4K5me2/H4K5),protein Q92945 KHSRP,0.0526
same,F6 log2 (H4K5me2/H4K5),protein Q92945 KHSRP,0.2777
same,E6 log2 (H4K5me2/H4K5),protein Q99459 CDC5L,0.1274
same,F6 log2 (H4K5me2/H4K5),protein Q99459 CDC5L,-0.0666
